Measured values from article PMC9967051, “(S)-N-Benzyl-1-phenyl-3,4-dihydroisoqunoline-2(1H)-carboxamide Derivatives, Multi-Target Inhibitors of Monoamine Oxidase and Cholinesterase: Design, Synthesis, and Biological Activity” (Molecules, 2023).
Like-named read-outs stand apart in the source and are kept apart here.

Experiments:
MAO = MAO activity assay (total MAO); format: biochemical; settings: for Inhibition Rate for MAO: compounds concentration 100 µM
Experimental: (§1) The enzyme activity analysis was performed according to the procedure reported by Matsumoto et al. with slight modifications. All materials used in the enzymatic assays were purchased from Aladdin Reagent Chemicals. […] The concentrations of the synthesized compounds altered from 0.001 µM to 100 µM for the MAO-A and -B enzyme activity inhibition. […] The enzymatic reactions were caused by the addition of MAO-A (40 µg/mL) or MAO-B (20 µg/mL), and cultured at 37 °C for 30 min. The enzyme reactions were stopped through the addition of 2N NaOH for 75 µL. […] The inhibitory effect of enzyme activity was calculated as a percentage of product formation compared to the corresponding control with no inhibitor. A control was established to determine the interference of the tested compounds to the fluorescence assay, and the enzyme or substrate was added after the reaction stopped.

L929 cells [1] = assay: MTT cytotoxicity test; format: cell-based; settings: MTT, 3.125 to 100 μM
Experimental: (§2) L929 cells in the logarithmic growth phase were selected, and the cell density was adjusted to 2 × 10^4 per well by a cell counter. The 96-well plate was inoculated in a 96-well plate, and the 96-well plate inoculated with cells was cultured in a 37 °C 5% carbon dioxide cell incubator for 24 h. Then, the medium containing 100 μM of the compound to be tested was added (the blank group was added to the medium without drug), shaken gently, and placed in a 5% carbon dioxide cell incubator at 37 °C for 24 h. Each concentration was repeated for […].
(§3) The assay detects live cells, but not dead cells, and the resulting signal depends on how activated the cells are. […] Therefore, MTT has been used to establish quantitative colorimetric assays for mammalian cell survival and proliferation. Therefore, this method can be used to measure cytotoxicity, proliferation, or activation. After 24 h, 20 μL of […] MTT solution (prepared in PBS with pH 7.6) was added in the dark, and cultured in a cell incubator for another 4 h. After 4 h, the 96 plate was taken out to discard the original medium, and 160 μL of DMSO was added, placed on a shaker, and mixed for about 10 min. Then, a microplate reader was used to measure its absorbance at 490 nm, and the results were recorded and analyzed.

MTT cytotoxicity test = format: cell-based; settings: mouse; L929 cells, compared with the blank control, 3.125 to 100 μM
Experimental: as §2, §3

L929 cells [2] = assay: AO fluorescent staining cell viability; format: cell-based; settings: 100 μM, compared with the control group
Experimental: Using the AO Fluorescent Staining Kit, AO is a tricyclic heteroaromatic dye that can penetrate cells with intact cell membranes and embed nuclear DNA, making them emit bright green fluorescence. L929 cells were selected from the logarithmic growth phase, and the cell density was adjusted to 8 × 10^5 per well with a cell counter to inoculate in a 6-well plate, and the 6-well plate was placed in a 37 °C 5% carbon dioxide cell incubator for 12 h. It grew completely adhering to the wall. After 12 h, 1 mL of medium containing 100 μM of the compound to be tested was added (for the blank group, drug-free medium was added), shaken gently, and placed in a 5% carbon dioxide cell incubator at 37 °C for 12 h. After 12h, the medium was discarded, PBS was added to wash once, 1 mL of PBS and 80 μL of AO solution (prepared according to the kit instructions) were slowly added in the dark, and mixed for 5 min to make the staining uniform and sufficient. The staining was aspirated after 5 min, washed 1–2 times with PBS, and observed under a fluorescence microscope, the results were recorded and analyzed.

MAO-A [3] = target: T1, MAO-A (Homo sapiens, UniProt P21397); assay: MAO activity assay, MAO-A; format: biochemical
T1 construct: purchased Aladdin Reagent Chemicals
T1 sequence (P21397 1-527): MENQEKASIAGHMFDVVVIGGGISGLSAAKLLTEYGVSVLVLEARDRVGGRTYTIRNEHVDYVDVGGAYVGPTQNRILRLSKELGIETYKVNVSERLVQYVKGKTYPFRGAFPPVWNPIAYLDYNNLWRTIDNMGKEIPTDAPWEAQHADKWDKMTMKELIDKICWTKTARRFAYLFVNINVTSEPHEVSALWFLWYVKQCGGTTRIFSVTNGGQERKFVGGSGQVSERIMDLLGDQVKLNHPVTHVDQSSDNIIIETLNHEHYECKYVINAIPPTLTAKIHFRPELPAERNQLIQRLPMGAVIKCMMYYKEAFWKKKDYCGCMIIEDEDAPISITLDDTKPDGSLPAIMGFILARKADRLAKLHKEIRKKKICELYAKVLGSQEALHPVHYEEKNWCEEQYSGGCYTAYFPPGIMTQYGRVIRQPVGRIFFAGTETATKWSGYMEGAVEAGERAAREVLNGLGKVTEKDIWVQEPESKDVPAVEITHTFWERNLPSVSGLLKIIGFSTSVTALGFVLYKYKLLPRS
Experimental: as §1

MAO-B [4] = target: T2, MAO-B (Homo sapiens, UniProt P27338); assay: MAO activity assay, MAO-B; format: biochemical
T2 construct: purchased Aladdin Reagent Chemicals
T2 sequence (P27338 1-520): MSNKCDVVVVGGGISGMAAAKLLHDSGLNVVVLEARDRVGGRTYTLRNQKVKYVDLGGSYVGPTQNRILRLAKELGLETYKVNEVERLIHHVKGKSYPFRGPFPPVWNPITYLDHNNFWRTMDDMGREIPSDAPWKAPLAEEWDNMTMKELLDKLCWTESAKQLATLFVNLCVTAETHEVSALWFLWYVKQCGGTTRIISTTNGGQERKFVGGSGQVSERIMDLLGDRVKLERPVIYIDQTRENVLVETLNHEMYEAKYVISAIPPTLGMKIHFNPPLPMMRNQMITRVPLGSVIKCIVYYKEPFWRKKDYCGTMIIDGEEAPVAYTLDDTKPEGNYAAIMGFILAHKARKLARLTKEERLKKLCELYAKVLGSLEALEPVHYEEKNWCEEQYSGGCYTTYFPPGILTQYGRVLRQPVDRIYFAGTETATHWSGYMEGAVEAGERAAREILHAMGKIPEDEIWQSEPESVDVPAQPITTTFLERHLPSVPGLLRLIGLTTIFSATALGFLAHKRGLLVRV
Experimental: as §1

[5] = target: horse serum butyrylcholinesterase (EqBChE); settings: cited from earlier work
MAO-A [6] = target: T1, MAO-A; settings: cited from earlier work
[7] = target: electric eel acetylcholinesterase (EeAChE); settings: cited from earlier work
BChE [8] = target: T3, BChE (Homo sapiens, UniProt P06276); assay: biochemical; settings: compounds concentration 100 µM; read-out: Inhibition Rate BChE
T3 sequence (P06276 29-602): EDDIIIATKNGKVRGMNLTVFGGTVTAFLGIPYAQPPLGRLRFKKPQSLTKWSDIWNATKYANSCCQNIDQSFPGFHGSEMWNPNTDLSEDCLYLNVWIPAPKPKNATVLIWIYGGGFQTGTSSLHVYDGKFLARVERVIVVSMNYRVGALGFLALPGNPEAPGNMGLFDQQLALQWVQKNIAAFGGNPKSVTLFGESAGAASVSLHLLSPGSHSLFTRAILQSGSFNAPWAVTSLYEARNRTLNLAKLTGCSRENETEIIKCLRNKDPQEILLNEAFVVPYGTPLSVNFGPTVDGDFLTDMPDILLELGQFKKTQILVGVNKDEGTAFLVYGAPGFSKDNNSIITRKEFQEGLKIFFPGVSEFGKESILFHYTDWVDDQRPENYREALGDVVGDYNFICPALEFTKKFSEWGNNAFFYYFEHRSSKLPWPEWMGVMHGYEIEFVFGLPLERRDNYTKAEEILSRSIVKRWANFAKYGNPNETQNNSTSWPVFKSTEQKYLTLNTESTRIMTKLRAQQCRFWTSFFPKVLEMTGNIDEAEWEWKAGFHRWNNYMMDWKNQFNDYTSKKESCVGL
Experimental: Inhibition of AChE and BChE was measured through the spectrophotometric method developed by Ellman’s method with slight modifications. The analysis protocol contained 96-well plates (100 µL per well). Each well involved 20 µL of assay buffer solution, 20 µL of the test sample, and 40 µL of 0.2 U/mL of AChE or BChE. The mixture was incubated for 10 min at 25 °C followed by the addition of substrate (20 µL). For AChE inhibition assay, acetylthiocholine iodide (ATCI, 0.001 mol/L), while for BChE assay, butyrylthiocholine chloride (BTCCl, 0.001 mol/L) was added to it. The mixture was incubated at 37 °C for 15 min. Ellman reagent (5,5′-dithio-bis(2-nitrobenzoic acid), DTNB, 0.001 mol/L) was added. […] The blank analysis was performed. All the analyses were performed in triplicate. Inhibition rate of experimental sample or positive control group (%) = [(control group-blank background)-(experimental sample or positive control group -sample background)]/(control-blank background) × 100%.

AChE = AChE (Homo sapiens, UniProt P22303); settings: cited from earlier work
Sequence of AChE (P22303 32-614): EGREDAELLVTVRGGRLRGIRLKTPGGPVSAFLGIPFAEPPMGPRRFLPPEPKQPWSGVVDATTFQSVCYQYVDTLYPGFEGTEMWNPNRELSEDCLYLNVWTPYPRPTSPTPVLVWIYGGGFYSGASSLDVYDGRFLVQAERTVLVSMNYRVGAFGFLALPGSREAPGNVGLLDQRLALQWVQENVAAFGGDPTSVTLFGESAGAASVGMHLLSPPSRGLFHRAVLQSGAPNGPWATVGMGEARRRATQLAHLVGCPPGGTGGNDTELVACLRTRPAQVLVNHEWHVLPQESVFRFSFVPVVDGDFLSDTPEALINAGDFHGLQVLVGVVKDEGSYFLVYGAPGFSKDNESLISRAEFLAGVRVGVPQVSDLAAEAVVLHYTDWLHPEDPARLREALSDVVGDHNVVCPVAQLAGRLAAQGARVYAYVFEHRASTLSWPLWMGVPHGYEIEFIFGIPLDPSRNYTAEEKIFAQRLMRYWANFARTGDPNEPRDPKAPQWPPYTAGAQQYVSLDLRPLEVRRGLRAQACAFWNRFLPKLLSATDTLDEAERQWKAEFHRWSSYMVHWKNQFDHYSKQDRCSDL

BChE [9] = target: T3, BChE; settings: cited from earlier work
[10] = parameters: method as in doi:10.1007/s00044-018-2261-2; settings: forced swimming test, p< 0.001; cited from earlier work
MAO-B [11] = target: T2, MAO-B; settings: cited from earlier work

Structure (SMILES)	IC50 (MAO)	cytotoxicity against L929 cells (L929 cells [1])	viability at 24 h (MTT cytotoxicity test)	toxicity toward L929 cells (AO fluorescence staining) (L929 cells [2])	IC50 (MAO-A [3])	IC50 (MAO-B [4])	inhibition at 100 µM (BChE [8])	other results
O=C(NCc1cccc(Br)c1)N1CCc2ccccc2[C@@H]1c1ccccc1 [2i, (S)-N-(m-bromobenzyl)-1-phenyl-3,4-dihydroisoquinoline-2(1H)-carboxamide]	1340 nM	no obvious cytotoxicity	> 90%	no significant toxicity	1560 nM	4.3 µM		
C[n+]1cc2cc3c(cc2c2ccc4cc5c(cc4c21)OCO5)OCO3 [avicine]								IC50 [5]: 880 nM; IC50 (MAO-A [6]): 410 nM; IC50 [7]: 150 nM
COc1cccc(CNC(=O)N2CCc3ccccc3[C@@H]2c2ccccc2)c1 [2t, (S)-N-(m-methoxybenzyl)-1-phenyl-3,4-dihydroisoquinoline-2(1H)-carboxamide]	2080 nM	no obvious cytotoxicity	> 90%	no significant toxicity	2500 nM	1.61 µM	55%	
O=C(NCc1ccc(Br)cc1)N1CCc2ccccc2[C@@H]1c1ccccc1 [2j, (S)-N-(p-bromobenzyl)-1-phenyl-3,4-dihydroisoquinoline-2(1H)-carboxamide]	1930 nM	no obvious cytotoxicity	> 90%	no significant toxicity	2480 nM	> 100 µM	34.5%	
COc1cc2c3c(c1OC)-c1cc4c(cc1CC3NCC2)OCO4 (centres unmarked) [nornantenine]								IC50 (AChE): 206 µM; IC50 (BChE [9]): 94.4 µM
COc1ccc(CNC(=O)N2CCc3ccccc3[C@@H]2c2ccccc2)c(OC)c1 [2v, (S)-N-(2,4-dimethoxybenzyl)-1-phenyl-3,4-dihydroisoquinoline-2(1H)-carboxamide]	958 nM	no obvious cytotoxicity	> 90%	no significant toxicity	3510 nM	3.52 µM		
Cc1ccccc1CNC(=O)N1CCc2ccccc2[C@@H]1c1ccccc1 [2p, (S)-N-(o-methylbenzyl)-1-phenyl-3,4-dihydroisoquinoline-2(1H)-carboxamide]	774 nM	no obvious cytotoxicity	> 90%	no significant toxicity	2920 nM	3.88 µM		
O=C(NCc1ccccc1)N1CCc2ccccc2[C@@H]1c1ccccc1 [2a, (S)-N-benzyl-1-phenyl-3,4-dihydroisoquinoline-2(1H)-carboxamide]								Inhibition Rate for MAO (MAO): 29.2%; duration of immobility [10]: 11.0 ± 7.1 s
O=C(NCc1ccc(F)cc1)N1CCc2ccccc2[C@@H]1c1ccccc1 [2d, (S)-N-(p-fluorobenzyl)-1-phenyl-3,4-dihydroisoquinoline-2(1H)-carboxamide]	5780 nM	no obvious cytotoxicity	> 90%	no significant toxicity	1380 nM	> 100 µM		
COc1ccc2c(c[n+](C)c3c4cc5c(cc4ccc23)OCO5)c1OC [chelerythrine]								IC50 (MAO-B [11]): > 20 µM
O=C(NCc1ccc(Cl)c(Cl)c1)N1CCc2ccccc2[C@@H]1c1ccccc1 [2z, (S)-N-(3,4-dichlorobenzyl)-1-phenyl-3,4-dihydroisoquinoline-2(1H)-carboxamide]							12.1%	Inhibition Rate for MAO (MAO): 7.40%
O=C(NCc1c(F)cccc1F)N1CCc2ccccc2[C@@H]1c1ccccc1 [2ab, (S)-N-(2,6-difluorobenzyl)-1-phenyl-3,4-dihydroisoquinoline-2(1H)-carboxamide]							24.9%	Inhibition Rate for MAO (MAO): 33.0%
COc1ccc(CC2c3cc(O)c(OC)cc3CCN2C)cc1O (centres unmarked) [reticuline]								IC50 (AChE): 301 µM; IC50 (BChE [9]): 65 µM
COc1ccc(CNC(=O)N2CCc3ccccc3[C@@H]2c2ccccc2)cc1 [2u, (S)-N-(p-methoxybenzyl)-1-phenyl-3,4-dihydroisoquinoline-2(1H)-carboxamide]							40.7%	
